Data reported in US6579519B2, “Sustained release and long residing ophthalmic formulation and the process of preparing the same” (Registrar, University of Delhi, priority 2000, dated 2003).

Assay: Maximum drug dissolved in polymeric micelles
Type: physicochemical
Conditions: room temperature
Protocol: In 100 mg of the lyophilized powder of the polymeric micelles nanoparticles, an alcoholic solution of indomethacin ([Indomethacin]=33 mg/ml) was added with constant stirring to get clear solution of polymeric micelles containing the drug of desired concentration dispersed in aqueous buffer. […] The drug loaded polymeric micelles was then lyophilized to get dry powder for subsequent use.
In 100 mg of dry powder of polymeric micelles, an alcoholic solution of nimesulide ([nimesulide]=10 mg/ml) was added with constant stirring to get clear solution. […] The drug loaded micelles was then lyophilized to get dry powder for subsequent use.

SMILES	Maximum of the drug dissolved in polymeric micelles
COc1ccc2c(c1)c(CC(=O)O)c(C)n2C(=O)c1ccc(Cl)cc1 [indomethacin, 1-(4 chlorobenzoyl)-5 methoxy-2-methyl-1H-indole-3acetic acid]	10 % w/w
CS(=O)(=O)Nc1ccc([N+](=O)[O-])cc1Oc1ccccc1 [nimesulide, N-(4-nitro-2 phenoxyphenyl) methanesulphonamide]	8 % w/w
